For data set [1], the system named is A-549 human lung carcinoma cell line. Description: MTT cytostatic-cytotoxic activity, A-549. Conditions: A-549, 48 h treatment. Format: cell-based.
Data set [2] concerns PC-3 human hormone-resistant prostate cancer cell line. Description: MTT cytostatic-cytotoxic activity, PC-3. The data set is classed as cell-based. Conditions: PC-3, 48 h treatment.
The test system of data set [3] is MCF-7 human breast cancer cell line. The experiment in a line: MTT cytostatic-cytotoxic activity, MCF-7. The data set is classed as cell-based. As to conditions: MCF-7, 48 h treatment.
The subject of data set [4] is OVCAR-3 human ovarian cancer cell line. The experiment in a line: MTT cytostatic-cytotoxic activity, OVCAR-3. Format: cell-based. Conditions: OVCAR-3, 48 h treatment. Here is the method: (§1) SKOV-3 (SKOV-3) (ATCC HTB 77) and OVCAR-3 (ATCC® HTB-161™)
(§2) Human ovarian adenocarcinoma cells, which are grown easily in monolayer culture with epithelial-like morphology. SKOV-3 are resistant to tumor necrosis factor (TNF) and to other cytotoxic drugs such as cisplatin, and adriamycin, while OVCAR-3 are resistant to adriamycin, cisplatin and melphalan. These cell lines express androgens, estrogens and progesterone receptors. When SKOV-3 or OVCAR-3 cells are subcutaneously implanted in nude mice, SCID mice, a moderately differentiated tumor develops, and the resulting model resembles primary ovarian adenocarcinoma in humans.
(§3) All cancer cell lines are stored in a liquid nitrogen tank in 2.5 ml cryovials (Corning-Costar, Cambridge, Mass.). DMSO (dimethylsulfoxide) act as a cryoprotectant and is added to prevent the formation of ice crystals which may lyse the cells. The Cells were grown as monolayer cultures in T-75 flasks (Corning-Costar, Cambridge, Mass.) and maintained at 37° C. in 5% CO2 incubator & 100% relative humidity. The cultures medium used are McCoy's 5a Medium, supplemented with 10% fetal bovine serum (FBS, Gibco) and 1% antibiotics (100 IU/ml penicillin/100 µg/ml streptomycin), sterilized by filtration (Corning-Costar filter, diameter 0.2 μm, RPMI-1640 and 50% RPMI-1640 (Catalog No 30-2001) plus 50% Mammary Epithelial Growth Medium (MEGM), supplemented with 10% fetal bovine serum (FBS, Gibco) and 1% antibiotics (100 IU/ml penicillin/100 μg/ml streptomycin). The passage is performed every 3-4 to days as follows: Cells are washed with sterile PBS (Phosphate buffered saline): 8 g/l NaCl, 0,2 g/l KCl, 1,15 g/l Na2HPO4καl 0,2 g/l KH2PO4. pH:7,4), add 2-3 ml 0.05% trypsin (Gibco 1:250) and 0.02% EDTA to cover the monolayer and incubate the flask at 3TC for 5-10 minutes. Trypsin-EDTA, is used mainly to detach the cells from the flask and prepare a single cell suspension. Finally, the number of cells can be determined by direct counting using a Neubauer chamber and cell viability is determined by staining the cells with trypan blue.
(§4) In the experimental study the in vitro effect of the compound type (I) was evaluated against ovarian cancer cell lines UWB1.289, UWB1.289+BRCA1 Kai SKOV-3.The cells were plated in 96-well plate (MTP) at a density of 1×10^4cells/m1 per well and maintained for 72 h at 3TC in a 5% CO2 incubator and grown as monolayers. The selection of the initial number of cells was made according to the rate of proliferation of the cell line, in order the cells throughout the experiment are in an exponential (log) growth phase. After 24 hours, cells were treated with 1-100 μmol/l of the tested compounds for 48 h. Experiments were carried out using triplicate wells. The viability of cultured cells was estimated by an (3-(4,5-imethylthiazol-2-yl)-2,5-diphenyltetrazolium bromide (MTT) metabolic assay as described previously (Finlay G J, Wilson W R and Baguley B C: Comparison of in vitro activity of cytotoxic drugs towards human carcinoma and leukaemia cell lines. Eur J Cancer Clin Oncol 22: 655-662, 1986; Alley M C, Scudiero D A, Monks A, Hursey M L, Czerwinski M J, Fine D L, et al. Feasibility of drug screening with panels of human tumor cell lines using a microculture tetrazolium assay. Cancer Res 1988; 48:589-601). MTT (Sigma, St Louis, Mo., USA) was dissolved in PBS in a concentration of 5 mg/ml, filter sterilized, and stored at 4° C. MTT (50 μl of stock solution) was added to each culture and incubated for 3 h at 3TC to allow metabolization. Formazan crystals were solubilized by DMSO (100 μl). Absorbance of the converted dye was measured at a wavelength of 540nm on ELISA reader (BioTek, Winooski, Vt., USA).
(§5) GI50: The mean concentration that causes 50% inhibition of cell growth (Growth Inhibition 50%). The calculation of the value is based on the formula: (Tt72x)−(Ct24)/(Ct72)-(Ct24)×100=50
(§6) TGI: The mean concentration that causes 100% inhibition of cell growth (Total Growth Inhibition). […]

Data set [5] concerns SKOV-3 human ovarian cancer cell line. The experiment in a line: MTT cytostatic-cytotoxic activity, SKOV-3. Format: cell-based. Conditions: SKOV-3, 48 h treatment. Here is the method: as §1, §2, §3, §4, §5, §6
Data set [6] relates to MOLT-4 human acute T-leukemia cell line. Description: MTT cytostatic-cytotoxic activity, MOLT-4. Format: cell-based. As to conditions: MOLT-4, 48 h treatment.
Data set [7] concerns UWB1.289 + BRCA1 human ovarian cancer cell line. Description: MTT cytostatic-cytotoxic activity, UWB1.289+BRCA1. Format: cell-based. As to conditions: UWB1.289+BRCA1, 48 h treatment. Here is the method: Human ovarian adenocarcinoma cells, derived from UBWB1,289, in which the presence of the BRCA1 gene has been restored. […] They are not susceptible to ionizing radiation and radioimmune chemical agents (e.g., alkylating agents). Also, UWB1.289 cells have mutated the p53 tumor suppressor gene, and are positive for the expression of cytokeratin 7 (CK-7), calretinin and Wilms' tumor protein (WT).
as §3, §4, §5
(§7) TGI: The mean concentration that causes 100% inhibition of cell growth (Total Growth Inhibition). The value is calculated according to the formula: (Tt72x)−(Ct24)/(Ct72)−(Ct24)×100=0
(§8) IC50: The mean concentration that kills 50% of the cells (Inhibition Concentration 50%). The value is calculated according to the formula: (Tt72x)−(Ct24)/(Ct24)×100=[…]

The test system of data set [8] is UWB1.289 human ovarian cancer cell line (mutant BRCA1). The experiment in a line: MTT cytostatic-cytotoxic activity, UWB1.289. Format: cell-based. As to conditions: UWB1.289, 48 h treatment. Here is the method:
Also, UWB1.289 cells have mutated the p53 tumor suppressor gene and positive Wilms' tumor protein (WT) expression, have no functional BRCA1 gene and are positive for the expression of cytokeratin 7 (CK-7), calretinin and Wilms' tumor protein (WT). Finally they are sensitive to ionizing radiation.
as §3, §4, §5, §7, §8

Data set [9] deals with T-47D human breast cancer cell line. The experiment in a line: MTT cytostatic-cytotoxic activity, T-47D. Conditions: 48 h treatment. Format: cell-based.
For data set [10], the system named is all 9 human cancer cell lines. The experiment in a line: MTT cytostatic-cytotoxic activity, all 9 human cancer cell lines. As to conditions: for IC50: Homo sapiens, read-out: (cytotoxic); for GI50: in all 9 human cancer cell lines, read-out: IG50 (cytostatic). The data set is classed as cell-based.
A short description of another data set: in vivo. As to conditions: both sexes, mouse, in vivo, ip; C57BI/6 mice, acute toxicity. Here is the method: The acute toxicity of the compounds was assessed from lethality by testing different concentrations, starting at 100mg/kg. […] For intraperitoneal (i.p.) treatment, stock solutions of the tested compounds were prepared immediately before use. They were suspended in corn oil in the desired concentration following initial dissolution in 10% dimethylsulfoxide (DMSO). C57BI/6 male and female were used for toxicity studies. Mice were kept under conditions of constant temperature and humidity in sterile cages with water and food.

Structures are written as SMILES. A value given as a limit tells only on which side of the number the result lay.

By TGI is commonly meant the concentration at which net growth stops. As to `COc1cc(Cc2nnc3sc(/C=C/c4cccc(F)c4)nn23)c(S(=O)(=O)N(C)C)cc1OC` [TS29, 3-[2-(N,N-dimethylsulfamoyl)-4,5dimethoxybenzyl]-6-(E)-3-fluorostyryl-1,2,4-triazolo[3,4-b]-1,3,4-thiazole], the GI50 in data set [1] amounted to 30 µM; in data set [2], 85 µM; in data set [3] it was 66 µM; in data set [4] it was 74 µM; in [5] it was 45 µM; in data set [6], 61 µM. Moreover, the GI50 in data set [7] is 10 µM; in [8], 10 µM; in data set [9], 48 µM. Moreover, the TGI was 71 µM in data set [1]; greater than 100 µM in [2]; greater than 100 µM in data set [3]; greater than 100 µM in data set [4]; 84 µM in data set [5]; greater than 100 µM in [6]. Also, the results for the TGI in data set [7], in data set [8] and in [9] were 64 µM, 67 µM and 86 µM, respectively. The IC50 in data set [1] (kills 50% of the cells), in data set [2] (kills 50% of the cells), in data set [3] (kills 50% of the cells), in [4] (kills 50% of the cells), in [5] (kills 50% of the cells) and in data set [6] (kills 50% of the cells) was greater than 100 µM in each case. Further, the IC50 in [7] (kills 50% of the cells), in data set [8] (kills 50% of the cells) and in [9] (kills 50% of the cells) was greater than 100 µM throughout.

Usually LD50 stands for the dose at which mortality reaches 50%. A higher LD50 goes with a less toxic substance. Consider `COc1ccc(Cc2nn3c(Cc4cc(OC)c(OC)cc4S(=O)(=O)N(C)C)nnc3s2)cc1OC` [TS51, 3-[2-(N,N-dimethylsulfamoyl)-4,5-dimethoxybenzyl]-6-(3,4-dimethoxybenzyl)-1,2,4-triazolo[3,4-b]-1,3,4-thiazole], for which, in data set [10], the IC50 is greater than 100 µM and the GI50 was less than 100 µM. In the data set “in vivo”, this compound gave an LD50 greater than 500 mg/kg.

Turning to `COc1cc(Cc2nnc3sc(CCCc4ccccc4)nn23)c(S(=O)(=O)N(C)C)cc1OC` [TS52, 3-[2-(N,N-dimethylsulfamoyl)-4,5-dimethoxybenzyl]-6-(3-phenylpropyl)-1,2,4-triazolo[3,4-b]-1,3,4-thiazole], in data set [10], the IC50 was greater than 100 µM and the GI50 was less than 100 µM. The compound also gave a 50% lethal dose (LD50) in the data set “in vivo” greater than 500 mg/kg.

`COc1ccccc1CCc1nn2c(Cc3cc(OC)c(OC)cc3S(=O)(=O)N(C)C)nnc2s1` [TS54, 3-[2-(N,N-dimethylsulfamoyl)-4,5-dimethoxybenzyl]-6-[2-(2-methoxyphenyl)ethyl]-1,2,4-triazolo[3,4-b]-1,3,4-thiazole]: in data set [10], the IC50 was greater than 100 µM and the GI50 is less than 100 µM. This compound also came in with an LD50 in the data set “in vivo” greater than 500 mg/kg.

Take `COc1ccc(CCc2nn3c(Cc4cc(OC)c(OC)cc4S(=O)(=O)N(C)C)nnc3s2)cc1` [TS55, 3-[2-(N,N-dimethylsulfamoyl)-4,5-dimethoxybenzyl]-6-[2-(4-methoxyphenyl)ethyl]-1,2,4-triazolo[3,4-b]-1,3,4-thiazole]: in data set [10], the IC50 was greater than 100 µM and the GI50 is less than 100 µM. The compound also came in with an LD50 in “in vivo” greater than 500 mg/kg.

Regarding `COc1cc(Cc2nnc3sc(COc4ccccc4)nn23)c(S(=O)(=O)N(C)C)cc1OC` [TS56, 3-[2-(N,N-dimethylsulfamoyl)-4,5-dimethoxybenzyl]-6-phenoxymethyl-1,2,4-triazolo[3,4-b]-1,3,4-thiazole], in data set [10], the IC50 was greater than 100 µM and the GI50 was less than 100 µM. In addition, the median lethal dose (LD50) in the data set “in vivo” was greater than 500 mg/kg.

Turning to `COc1cccc(Cc2nn3c(Cc4cc(OC)c(OC)cc4S(=O)(=O)N(C)C)nnc3s2)c1` [TS58, 3-[2-(N,N-dimethylsulfamoyl)-4,5-dimethoxybenzyl]-6-(3-methoxybenzyl)-1,2,4-triazolo[3,4-b]-1,3,4-thiazole], in data set [10], the IC50 is greater than 100 µM and the GI50 was less than 100 µM. Besides, the LD50 in the data set “in vivo” was greater than 500 mg/kg.

For the compound `COc1cc(Cc2nnc3sc(-c4cc(OC)c(OC)c(OC)c4)nn23)c(S(=O)(=O)N(C)C)cc1OC` [TS59, 3-[2-(N,N-dimethylsulfamoyl)-4,5-dimethoxybenzyl]-6-(3,4,5-trimethoxyphenyl)-1,2,4-triazolo[3,4-b]-1,3,4-thiazole], in [10], the IC50 was greater than 100 µM and the GI50 was less than 100 µM. This compound returned an LD50 in the data set “in vivo” greater than 500 mg/kg.

On to `COc1cc(Cc2nnc3sc(-c4ccc([N+](=O)[O-])cc4Cl)nn23)c(S(=O)(=O)N(C)C)cc1OC` [TS61, 3-[2-(N,N-dimethylsulfamoyl)-4,5-dimethoxybenzyl]-6-(2-chloro-4-nitrophenyl)-1,2,4-triazolo[3,4-b]-1,3,4-thiazole], for which, in data set [10], the IC50 is greater than 100 µM and the GI50 was less than 100 µM. Moreover, the LD50 in “in vivo” is greater than 500 mg/kg.

Consider `COc1cc(Cc2nnc3sc(-c4cccc(N)c4)nn23)c(S(=O)(=O)N(C)C)cc1OC` [TS70, 3-[2-(N,N-dimethylsulfamoyl)-4,5-dimethoxybenzyl]-6-(3-aminophenyl)-1,2,4-triazolo[3,4-b]-1,3,4-thiazole], for which, in data set [10], the IC50 is greater than 100 µM and the GI50 is less than 100 µM. Moreover, the LD50 in “in vivo” is greater than 500 mg/kg.

(Values after patent publication US10513529B2, “1,2,4-triazolo-[3,4-b]-1,3,4-thiadiazole derivatives” (GALENICA S.A., priority 2016, dated 2019).)
